# Data taken from ChEMBL document CHEMBL6109039, “Designed and synthesized novel tripeptides targeting diabetes and its related pathologies” (Eur J Med Chem, 2025).
# Assays:
# [1] = biological target: T1, Albumin (Homo sapiens, UniProt P02768); assay: Inhibition of D-glucose glycation in human serum albumin model incubated for 14 days by UV spectroscopic analysis relative to control; conditions: 336 h, time 14 day
# [2] = biological target: T1, Albumin; assay: Inhibition of D-glucose glycation in human serum albumin model by measuring ketoamine moieties incubated for 33 days by Nitroblue tetrazolium (NBT) reduction assay (reference value: 66.64 nmol/mL); conditions: 792 h, time 33 day
# [3] = biological target: T1, Albumin; assay: Inhibition of D-glucose glycation in human serum albumin model assessed as reduction in fluorescence intensity incubated for 3 days by UV spectroscopic analysis relative to control; conditions: 72 h, time 3 day
# [4] = biological target: T1, Albumin; assay: Inhibition of D-glucose glycation in human serum albumin model by measuring ketoamine moieties incubated for 5 days by Nitroblue tetrazolium (NBT) reduction assay (reference value: 18.58 nmol/mL); conditions: 120 h, time 5 day
# [5] = biological target: T1, Albumin; assay: Inhibition of D-fructose glycation in human serum albumin model by measuring absorbance at 279 nm incubated for 3 days by UV spectroscopic analysis (reference value: 0.492); conditions: 72 h, time 3 day
# [6] = biological target: T1, Albumin; assay: Inhibition of D-glucose glycation in human serum albumin model by measuring absorbance at 279 nm incubated for 7 days by UV spectroscopic analysis (reference value: […]); conditions: 168 h, time 7 day
# [7] = biological target: T1, Albumin; assay: Inhibition of D-fructose glycation in human serum albumin model by measuring ketoamine moieties incubated for 7 days by Nitroblue tetrazolium (NBT) reduction assay (reference value: 125.33 nmol/mL); conditions: 168 h, time 7 day
# [8] = biological target: T1, Albumin; assay: Inhibition of D-fructose glycation in human serum albumin model by measuring absorbance at 279 nm incubated for 5 days by UV spectroscopic analysis (reference value: 1.056); conditions: 120 h, time 5 day
# [9] = biological target: T1, Albumin; assay: Inhibition of D-fructose glycation in human serum albumin model by measuring ketoamine moieties incubated for 3 days by Nitroblue tetrazolium (NBT) reduction assay (reference value: 152.64 nmol/mL); conditions: 72 h, time 3 day
# [10] = biological target: T1, Albumin; assay: Inhibition of D-glucose glycation in human serum albumin model by measuring absorbance at 279 nm incubated for 33 days by UV spectroscopic analysis (reference value: 1.997); conditions: 792 h, time 33 day
# [11] = biological target: T1, Albumin; assay: Inhibition of D-fructose glycation in human serum albumin model by measuring ketoamine moieties incubated for 14 days by Nitroblue tetrazolium (NBT) reduction assay (reference value: 129.58 nmol/mL); conditions: 336 h, time 14 day
# [12] = biological target: T1, Albumin; assay: Inhibition of D-fructose glycation in human serum albumin model by measuring ketoamine moieties incubated for 33 days by Nitroblue tetrazolium (NBT) reduction assay (reference value: 144.33 nmol/mL); conditions: 792 h, time 33 day
# [13] = biological target: T1, Albumin; assay: Inhibition of D-glucose glycation in human serum albumin model by measuring ketoamine moieties incubated for 3 days by Nitroblue tetrazolium (NBT) reduction assay (reference value: 24.27 nmol/mL); conditions: 72 h, time 3 day
# [14] = biological target: T1, Albumin; assay: Inhibition of D-glucose glycation in human serum albumin model by measuring ketoamine moieties incubated for 30 days by Nitroblue tetrazolium (NBT) reduction assay (reference value: 27.85 nmol/mL); conditions: 720 h, time 30 day
# [15] = biological target: T1, Albumin; assay: Inhibition of D-fructose glycation in human serum albumin model by measuring ketoamine moieties incubated for 30 days by Nitroblue tetrazolium (NBT) reduction assay (reference value: 128.71 nmol/mL); conditions: 720 h, time 30 day
# [16] = biological target: T1, Albumin; assay: Inhibition of D-glucose glycation in human serum albumin model by measuring absorbance at 279 nm incubated for 5 days by UV spectroscopic analysis (reference value: 0.741); conditions: 120 h, time 5 day
# [17] = biological target: T1, Albumin; assay: Inhibition of D-fructose glycation in human serum albumin model assessed as reduction in fluorescence intensity incubated for 3 days by UV spectroscopic analysis relative to control; conditions: 72 h, time 3 day
# [18] = biological target: T1, Albumin; assay: Inhibition of D-fructose glycation in human serum albumin model incubated for 14 days by UV spectroscopic analysis relative to control; conditions: 336 h, time 14 day
# [19] = biological target: T1, Albumin; assay: Inhibition of D-fructose glycation in human serum albumin model by measuring ketoamine moieties incubated for 26 days by Nitroblue tetrazolium (NBT) reduction assay (reference value: 118.21 nmol/mL); conditions: 624 h, time 26 day
# [20] = biological target: T1, Albumin; assay: Inhibition of D-glucose glycation in human serum albumin model by measuring absorbance at 279 nm incubated for 3 days by UV spectroscopic analysis (reference value: 0.562); conditions: 72 h, time 3 day
# [21] = biological target: T1, Albumin; assay: Inhibition of D-glucose glycation in human serum albumin by measuring absorbance at 279 nm model incubated for 14 days by UV spectroscopic analysis (reference value: 2.302); conditions: 336 h, time 14 day
# [22] = biological target: T1, Albumin; assay: Inhibition of D-glucose glycation in human serum albumin model by measuring absorbance at 279 nm incubated for 30 days by UV spectroscopic analysis (reference value: 2.295); conditions: 720 h, time 30 day
# [23] = biological target: T1, Albumin; assay: Inhibition of D-fructose glycation in human serum albumin model by measuring absorbance at 279 nm incubated for 26 days by UV spectroscopic analysis (reference value: 2.267); conditions: 624 h, time 26 day
# [24] = biological target: T1, Albumin; assay: Inhibition of D-glucose glycation in human serum albumin model by measuring ketoamine moieties incubated for 14 days by Nitroblue tetrazolium (NBT) reduction assay (reference value: 28.69 nmol/mL); conditions: 336 h, time 14 day
# [25] = biological target: T1, Albumin; assay: Inhibition of D-glucose glycation in human serum albumin model by measuring ketoamine moieties incubated for 26 days by Nitroblue tetrazolium (NBT) reduction assay (reference value: 28.79 nmol/mL); conditions: 624 h, time 26 day
# [26] = biological target: T1, Albumin; assay: Inhibition of D-fructose glycation in human serum albumin model by measuring absorbance at 279 nm incubated for 30 days by UV spectroscopic analysis (reference value: 2.323); conditions: 720 h, time 30 day
# [27] = biological target: T1, Albumin; assay: Inhibition of D-glucose glycation in human serum albumin model by measuring ketoamine moieties incubated for 7 days by Nitroblue tetrazolium (NBT) reduction assay (reference value: 35.92 nmol/mL); conditions: 168 h, time 7 day
# [28] = biological target: T1, Albumin; assay: Inhibition of D-fructose glycation in human serum albumin model by measuring ketoamine moieties incubated for 5 days by Nitroblue tetrazolium (NBT) reduction assay (reference value: 111.94 nmol/mL); conditions: 120 h, time 5 day
# [29] = biological target: T1, Albumin; assay: Inhibition of D-fructose glycation in human serum albumin model by measuring absorbance at 279 nm incubated for 33 days by UV spectroscopic analysis (Rvb =2.222); conditions: 792 h, time 33 day
# [30] = biological target: T1, Albumin; assay: Inhibition of D-glucose glycation in human serum albumin model by measuring absorbance at 279 nm incubated for 26 days by UV spectroscopic analysis (reference value: 2.301); conditions: 624 h, time 26 day
# [31] = biological target: T1, Albumin; assay: Inhibition of D-fructose glycation in human serum albumin model by measuring absorbance at 279 nm incubated for 7 days by UV spectroscopic analysis (reference value: 1.072); conditions: 168 h, time 7 day
# [32] = biological target: T1, Albumin; assay: Inhibition of D-fructose glycation in human serum albumin model by measuring absorbance at 279 nm incubated for 14 days by UV spectroscopic analysis (reference value: 2.333); conditions: 336 h, time 14 day
# T1 sequence (P02768 whole entry): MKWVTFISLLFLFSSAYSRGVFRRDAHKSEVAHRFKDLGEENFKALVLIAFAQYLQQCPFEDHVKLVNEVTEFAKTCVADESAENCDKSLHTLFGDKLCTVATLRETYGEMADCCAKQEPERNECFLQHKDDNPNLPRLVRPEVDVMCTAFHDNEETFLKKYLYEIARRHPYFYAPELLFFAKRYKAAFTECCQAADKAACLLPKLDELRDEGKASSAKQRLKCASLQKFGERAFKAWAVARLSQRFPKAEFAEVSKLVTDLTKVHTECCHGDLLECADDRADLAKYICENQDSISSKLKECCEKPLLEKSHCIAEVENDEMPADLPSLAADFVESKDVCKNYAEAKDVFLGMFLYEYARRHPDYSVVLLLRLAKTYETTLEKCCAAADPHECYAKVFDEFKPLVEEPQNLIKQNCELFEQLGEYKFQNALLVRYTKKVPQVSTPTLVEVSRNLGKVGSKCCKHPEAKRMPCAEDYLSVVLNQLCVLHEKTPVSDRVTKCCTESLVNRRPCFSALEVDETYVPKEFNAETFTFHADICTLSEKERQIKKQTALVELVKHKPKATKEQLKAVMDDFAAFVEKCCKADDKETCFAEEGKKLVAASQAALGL
structure (smiles),measurement,setting,value
NCCC(=O)N[C@@H](Cc1cnc[nH]1)C(=O)O [CARNOSINE],inhibition (INH),[1],41.84%
same,Activity,[2],36.79 nmol/mL
same,inhibition (INH),[3],52.1%
same,Activity,[4],17.43 nmol/mL
same,OD,[5],0.487
same,OD,[6],0.609
same,Activity,[7],119.64 nmol/mL
same,OD,[8],1.024
same,Activity,[9],144.52 nmol/mL
same,OD,[10],1.853
same,Activity,[11],124.63 nmol/mL
same,Activity,[12],143.12 nmol/mL
same,Activity,[13],20.51 nmol/mL
same,Activity,[14],24.69 nmol/mL
same,Activity,[15],123.84 nmol/mL
same,OD,[16],0.684
same,inhibition (INH),[17],27.77%
same,inhibition (INH),[18],1.59%
same,Activity,[19],113.02 nmol/mL
same,OD,[20],0.562
same,OD,[21],1.662
same,OD,[22],1.654
same,OD,[23],2.127
same,Activity,[24],25.34 nmol/mL
same,Activity,[25],27.61 nmol/mL
same,OD,[26],1.866
same,Activity,[27],19.93 nmol/mL
same,Activity,[28],105.35 nmol/mL
same,OD,[29],2.173
same,OD,[30],2.274
same,OD,[31],0.756
same,OD,[32],1.872
